Source: paper PMC10098121, “Amphipathic barbiturates as marine product mimics with cytolytic and immunogenic effects on head and neck squamous cell carcinoma cell lines” (Frontiers in Pharmacology, 2023)
Where two headings read alike, the source gives them in different places.

How the values were obtained:
[1] = tested on: Staphylococcus aureus ATCC 9144; assay: Bacterial minimum inhibitory concentration (broth microdilution); format: cell-based; conditions: ATCC9144; Staphylococcus aureus ATCC 9144, 48 h, 35 °C, di-TFA salts
Protocol: (§1) Method for determination of bacterial minimum inhibitory concentration (MIC) Stock solutions of the water-soluble compounds were prepared by dissolving them in ultrapure water (Milli-Q H2O, Millipore, MA, USA). The less water-soluble compounds were first dissolved in 25 - 50 µL 100% DMSO before further dilution with ultrapure water. The DMSO concentration was always less than 1% in the working concentration of each compound. A modified broth microdilution susceptibility test based on the CLSI M07-A9 protocol, [2] was used to determine minimal inhibitory concentrations (MIC). Briefly, the test compounds were two-fold diluted with ultrapure water in polystyrene 96-well flat-bottom microplates (NUNC, Roskilde, Denmark). The bacterial inoculum was diluted to 2.5 - 3 x 10^4 cells/mL in Mueller-Hinton broth (MHB, Difco Laboratories, USA) and added to the different diluted compounds in a ratio of 1:1. Positive control (ciprofloxacin, Sigma-Aldrich, USA), negative control (bacteria + water), and media control (media + water) were included in each experiment. The microplates were incubated for 48 h at 35 °C in an EnVision microplate reader (PerkinElmer, Waltham, MA, USA). The lowest concentration of compounds that caused no bacterial growth, as determined by optical density (OD600) measurements, was defined as the MIC value. All compounds were tested in 3 technical replicates.
(§2) Supplementary Video S1. HSC-3 cells were seeded at 100% confluence and a standard scratch wound migration assay was performed. The cells were imaged every 2 hours for 24 hours. The video

[2] = tested on: Escherichia coli ATCC 25922; assay: as above; format: cell-based; conditions: ATCC25922; Escherichia coli ATCC 25922, 48 h, 35 °C, di-TFA salts
Protocol: as §1, §2

[3] = tested on: Pseudomonas aeruginosa ATCC 27853; assay: as above; format: cell-based; conditions: ATCC27853; Pseudomonas aeruginosa ATCC 27853, 48 h, 35 °C, di-TFA salts
Protocol: as §1, §2

Bacillus subtilis 168 = assay: as above; format: cell-based; conditions: Bacillus subtilis 168, 48 h, 35 °C, di-TFA salts
Protocol: as §1, §2

human red blood cells [4] = assay: Hemolysis assay; format: cell-based; conditions: Homo sapiens, Erythrocyte; 1 h, 37°C; highest concentration tested 500 μM; average of three experiments; read-out: EC50 hemolytic activity against human red blood cells
Protocol: The hemolytic effect of the MPMs was determined using a hemolysis assay as previously described ([Paulsen et al., 2021]). Briefly, hemolysis was determined using a heparinized fraction (10 IU/mL) of freshly drawn blood. The blood collected in ethylenediaminetetraacetic acid-containing test tubes (Vacutest, KIMA, Arzergrande, Italy) was used for the determination of the hematocrit (hct). The heparinized blood was washed 3 × with pre-warmed phosphate-buffered saline (PBS) and adjusted to a final hct of 4%. MPMs in DMSO (50 mM) were added to a 96-well polypropylene V-bottom plate (NUNC, Fisher Scientific, Oslo, Norway) and serially diluted. The test concentration range was 4–500 μM with DMSO contents ≤1%. A solution of 1% triton X-100 was used as a positive control for 100% hemolysis. As a negative control, a solution of 1% DMSO in PBS was included. Red blood cells (1% v/v final concentration) were added to the well plate and incubated at 37°C and 800 rpm for 1 h. After centrifugation (5 min, 3000 g), 100 μL from each well was transferred to a 96-well flat-bottomed microtiter plate, and absorbance was measured at 545 nm with a microplate reader (VersaMaxTM, Molecular Devices, Sunnyvale, CA, United States). The percentage of hemolysis was calculated as the ratio of the absorbance in the MPM treated and surfactant-treated samples, corrected for the PBS background. Three independent experiments were performed, and EC50 values are presented as averages.

UT-SCC-24B = assay: High throughput drug screening (CellTiter-Glo, DSS); format: cell-based, human; conditions: for drug sensitivity score (DSS): 72 h, 10-100,000 nM, myogel, non-irradiated; for delta DSS (ΔDSS): DSS irradiated (2 Gy) minus DSS non-irradiated, >5 synergy, <–5 antagonism
Protocol: (§3) The MPMs were screened against a panel of […] different cell lines (HSC-3, UT-SCC-8, UT-SCC-24A, UT-SCC-24B, UT-SCC-42A, UT-SCC-42B and NOF) at the High Throughput Biomedicine Unit (HTB) at the Institute for Molecular Medicine Finland (FIMM). On day 1, black-walled 384-well plates were coated with 5 µl diluted myogel (0.5 mg/ml) per well using an automated reagent dispenser (MultiFlo FX, BioTek, Winooski, VT, United States). On day 2, 500 cells per well were seeded in 20 µl of complete media using the MultiFlo FX (BioTek), and the cells were left to adhere overnight. On day 3, the MPMs, cisplatin, DMSO and Benzethonium chloride were added to the cells using an automatic liquid handler (Echo 550, Labcyte Inc., San Jose, CA, United States). Cisplatin and the MPMs were added to yield five different concentrations in a ten-fold dilution series ranging from 10 to 100,000 nM. Each concentration was tested in triplicate wells. DMSO (0.1%) and benzethonium chloride (100 µM) served as negative and positive control, respectively. Three hours later, some of the plates were irradiated with 2 Gy in a gamma irradiator (OB29/4, STS, Braunschweig, Germany). All plates were taken to the irradiation room to ensure similar handling of the plates. 72 h later, the plates were cooled to room temperature before 25 µl of CellTiter-Glo 2.0 reagent (Promega, Madison, WI, USA) was added to each well using the MultiFlo FX (BioTek). Next, the plates were centrifuged for 5 min at 1,000 rpm before the luminescence signal was measured with the PHERAstar FS HT reader (BMG LABTECH GmbH, Ortenberg, Germany). The raw data was analyzed with the Breeze software (https://breeze.fmm.fi), which normalized the luminescence signal from treated cells against the signal from negative and positive control cells to calculate the percentage of inhibition and generate dose-response curves, which were then used to calculate drug sensitivity scores (DSS). The DSS is a parameter which combines the IC50, the slope of the dose-response curve, and the minimum and maximum responses into a single metric, as previously described ([Yadav et al., 2014]). Quality control was performed by calculation of the Z′-factor, which was >0.7 for all cell lines, indicating high quality of the assay ([Zhang et al., 1999]).

UT-SCC-106A = assay: as above; format: cell-based, human; conditions: for drug sensitivity score (DSS): 72 h, 10-100,000 nM, myogel, non-irradiated; for delta DSS (ΔDSS): DSS irradiated (2 Gy) minus DSS non-irradiated, >5 synergy, <–5 antagonism
Protocol: as §3

[5] = tested on: NOF (normal oral fibroblasts); assay: as above; format: cell-based, human; conditions: for drug sensitivity score (DSS): 72 h, 10-100,000 nM, myogel, non-irradiated; for delta DSS (ΔDSS): DSS irradiated (2 Gy) minus DSS non-irradiated, >5 synergy, <–5 antagonism
Protocol: as §3

UT-SCC-42A = assay: as above; format: cell-based, human; conditions: for drug sensitivity score (DSS): 72 h, 10-100,000 nM, myogel, non-irradiated; for delta DSS (ΔDSS): DSS irradiated (2 Gy) minus DSS non-irradiated, >5 synergy, <–5 antagonism
Protocol: as §3

UT-SCC-24A = assay: as above; format: cell-based, human; conditions: for drug sensitivity score (DSS): 72 h, 10-100,000 nM, myogel, non-irradiated; for delta DSS (ΔDSS): DSS irradiated (2 Gy) minus DSS non-irradiated, >5 synergy, <–5 antagonism
Protocol: as §3

UT-SCC-42B = assay: as above; format: cell-based, human; conditions: for drug sensitivity score (DSS): 72 h, 10-100,000 nM, myogel, non-irradiated; for delta DSS (ΔDSS): DSS irradiated (2 Gy) minus DSS non-irradiated, >5 synergy, <–5 antagonism
Protocol: as §3

HSC-3 = assay: as above; format: cell-based, human; conditions: for drug sensitivity score (DSS): HSC-3, 72 h, 10-100,000 nM, myogel, non-irradiated; for delta DSS (ΔDSS): HSC-3, DSS irradiated (2 Gy) minus DSS non-irradiated, >5 synergy, <–5 antagonism
Protocol: as §3

UT-SCC-8 = assay: as above; format: cell-based, human; conditions: for drug sensitivity score (DSS): UT-SCC-8, 72 h, 10-100,000 nM, myogel, non-irradiated; for delta DSS (ΔDSS): UT-SCC-8, DSS irradiated (2 Gy) minus DSS non-irradiated, >5 synergy, <–5 antagonism
Protocol: as §3

[6] = tested on: seven HNSCC cell lines and one normal oral fibroblast cell line (NOF); assay: High throughput drug screening, statements on the whole panel; format: cell-based, human; conditions: DSS
Protocol: as §3

human red blood cells [7] = tested on: human red blood cells; set-up: method as in von Hofsten et al., 2022; conditions: highest concentration 500 μM; ref von Hofsten et al., 2022; read-out: EC50 hemolytic activity against human red blood cells; cited from earlier work

Compound	drug sensitivity score (DSS) (UT-SCC-24B)	delta DSS (ΔDSS) (UT-SCC-24B)	drug sensitivity score (DSS) (UT-SCC-106A)	delta DSS (ΔDSS) (UT-SCC-106A)	drug sensitivity score (DSS) [5]	delta DSS (ΔDSS) [5]	drug sensitivity score (DSS) (UT-SCC-42A)	delta DSS (ΔDSS) (UT-SCC-42A)	drug sensitivity score (DSS) (UT-SCC-24A)	delta DSS (ΔDSS) (UT-SCC-24A)	drug sensitivity score (DSS) (UT-SCC-42B)	delta DSS (ΔDSS) (UT-SCC-42B)	drug sensitivity score (DSS) (HSC-3)	delta DSS (ΔDSS) (HSC-3)	drug sensitivity score (DSS) (UT-SCC-8)	delta DSS (ΔDSS) (UT-SCC-8)	further results
C[N+](C)(C)CCCCN1C(=O)N(CCCC[N+](C)(C)C)C(=O)C(CCCc2ccccc2)(CCCc2ccccc2)C1=O [MPM-4:3]	0	0,1	0,5	-0,5	2,2	-1,4	0,1	0	0	0	0,1	-0,1	0	0	0	0	MIC [1]: 64 µg/mL; MIC [2]: 64 µg/mL; MIC [3]: > 64 µg/mL; MIC (Bacillus subtilis 168): > 64 µg/mL; EC50 (human red blood cells [4]): > 500 µM; potency / effect on viability over the cell line panel (in words) ([6]; 72 h): completely inactive
NCCCCN1C(=O)N(CCCCN)C(=O)C(CCCc2ccccc2)(CCCc2ccccc2)C1=O [MPM-1]	9,7	0,5	10,3	0,3	17,1	0,4	8,4	-0,8	6,9	-1,1	7,4	0,6	8,8	0	10	-0,8	EC50 (human red blood cells [7]): > 500 µM; selectivity for cancer cell lines over NOFs (in words) ([6]; cancer lines and NOFs cultured in different media): slight tendency towards selectivity for the NOFs, which was especially prominent for MPM-1
